Assay in all cases: relative viability (nuclei count vs DMSO), 5 days (fraction); higher = more cells survive
Compound in the experiment “RU-SKI 43 + Lapatinib”: CC[C@@H](C)CNCC(=O)N1CCC2=C([C@@H]1COC3=CC=CC(=C3)C)C=CS2 [RU-SKI 43] + CS(=O)(=O)CCNCc1ccc(-c2ccc3ncnc(Nc4ccc(OCc5cccc(F)c5)c(Cl)c4)c3c2)o1 [Lapatinib] (partner 2 µM)
The gist of the method: (§1)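 Dosing by pin tool came one day after lung cancer cell lines were seeded in 1536-well plates, using either one drug or a fixed anchor-drug dose plus five library-drug doses (not always all listed) in √10 steps. After 5 days, nuclei were counted on 4× images. Relative viability is treated-well nuclei count divided by vehicle-well nuclei count, and values are medians of duplicate plates.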

Compound in the experiment “RU-SKI 43 + AZD7762”: CC[C@@H](C)CNCC(=O)N1CCC2=C([C@@H]1COC3=CC=CC(=C3)C)C=CS2 [RU-SKI 43] + NC(=O)Nc1cc(-c2cccc(F)c2)sc1C(=O)N[C@H]1CCCNC1 [AZD7762] (partner 0.2 µM)
The essentials: as §1

Compound in the experiment “MK-8033 + Trametinib”: Cn1cc(-c2cnc3ccc4ccc(CS(=O)(=O)NCc5ccccn5)cc4c(=O)c3c2)cn1 [MK-8033] + CC(=O)Nc1cccc(-n2c(=O)n(C3CC3)c(=O)c3c(Nc4ccc(I)cc4F)n(C)c(=O)c(C)c32)c1 [Trametinib] (partner 0.02 µM)
The gist of the method: as §1

Compound in the experiment “MK-8033 + Olaparib”: Cn1cc(-c2cnc3ccc4ccc(CS(=O)(=O)NCc5ccccn5)cc4c(=O)c3c2)cn1 [MK-8033] + O=C(c1cc(Cc2n[nH]c(=O)c3ccccc23)ccc1F)N1CCN(C(=O)C2CC2)CC1 [Olaparib] (partner 8 µM)
The essentials:
as §1

With 201T, the relative viability with RU-SKI 43 + Lapatinib (first compound 0.1 µM) came out at 1.1; with RU-SKI 43 + Lapatinib (first compound 0.3162 µM), 0.997; with RU-SKI 43 + Lapatinib (first compound 1 µM), 1.06; with RU-SKI 43 + Lapatinib (first compound 3.162 µM), 1.05; with RU-SKI 43 + Lapatinib (first compound 10 µM) it was 1.01; in the experiment with RU-SKI 43 + AZD7762 (first compound 0.1 µM), 0.628. For the same cell line, the relative viability in the experiment with RU-SKI 43 + AZD7762 (first compound 0.3162 µM) is 0.603; with RU-SKI 43 + AZD7762 (first compound 1 µM), 0.602; with RU-SKI 43 + AZD7762 (first compound 3.162 µM), 0.531; in the experiment with RU-SKI 43 + AZD7762 (first compound 10 µM), 0.567; with MK-8033 + Trametinib (first compound 0.02 µM) it was 0.778; in the experiment with MK-8033 + Trametinib (first compound 0.06325 µM), 0.76. In addition, the relative viability with MK-8033 + Trametinib (first compound 0.2 µM) was 0.709; with MK-8033 + Trametinib (first compound 0.6325 µM), 0.782; with MK-8033 + Trametinib (first compound 2 µM) it was 0.73; in the experiment with MK-8033 + Olaparib (first compound 0.02 µM), 0.873; in the experiment with MK-8033 + Olaparib (first compound 0.06325 µM), 0.824; in the experiment with MK-8033 + Olaparib (first compound 0.2 µM) it was 0.832. Moreover, the relative viability with MK-8033 + Olaparib (first compound 0.6325 µM) is 0.82; with MK-8033 + Olaparib (first compound 2 µM), 0.822.
As for A549, the relative viability in the experiment with RU-SKI 43 + Lapatinib (first compound 0.1 µM) is 0.95; with RU-SKI 43 + Lapatinib (first compound 0.3162 µM), 1.13; with RU-SKI 43 + Lapatinib (first compound 1 µM), 1.09; with RU-SKI 43 + Lapatinib (first compound 3.162 µM), 0.908; with RU-SKI 43 + Lapatinib (first compound 10 µM), 0.759; with MK-8033 + Olaparib (first compound 0.02 µM), 0.34. The relative viability in the experiment with MK-8033 + Olaparib (first compound 0.06325 µM) is 0.275; with MK-8033 + Olaparib (first compound 0.2 µM), 0.267; with MK-8033 + Olaparib (first compound 0.6325 µM) it was 0.305; in the experiment with MK-8033 + Olaparib (first compound 2 µM) it was 0.336.
A-427: the relative viability in the experiment with RU-SKI 43 + Lapatinib (first compound 0.1 µM) stood at 1.01; with RU-SKI 43 + Lapatinib (first compound 0.3162 µM) it was 1.22; with RU-SKI 43 + Lapatinib (first compound 1 µM), 1.1; with RU-SKI 43 + Lapatinib (first compound 10 µM), 1; with RU-SKI 43 + AZD7762 (first compound 0.1 µM) it was 0.726; with RU-SKI 43 + AZD7762 (first compound 0.3162 µM) it was 0.761. Moreover, the relative viability with RU-SKI 43 + AZD7762 (first compound 1 µM) came out at 0.765; with RU-SKI 43 + AZD7762 (first compound 3.162 µM), 0.851; in the experiment with RU-SKI 43 + AZD7762 (first compound 10 µM), 0.674; in the experiment with MK-8033 + Trametinib (first compound 0.02 µM), 0.775; with MK-8033 + Trametinib (first compound 0.06325 µM), 0.719; with MK-8033 + Trametinib (first compound 0.2 µM), 0.696. Moreover, the relative viability with MK-8033 + Trametinib (first compound 0.6325 µM) is 0.752; in the experiment with MK-8033 + Trametinib (first compound 2 µM) it was 0.781; in the experiment with MK-8033 + Olaparib (first compound 0.02 µM) it was 0.778; with MK-8033 + Olaparib (first compound 0.06325 µM) it was 0.722; in the experiment with MK-8033 + Olaparib (first compound 0.2 µM) it was 0.623; in the experiment with MK-8033 + Olaparib (first compound 0.6325 µM), 0.818. The relative viability in the experiment with MK-8033 + Olaparib (first compound 2 µM) turned out to be 0.676.
ABC-1: the relative viability was 1.23 with RU-SKI 43 + Lapatinib (first compound 0.1 µM); 1.42 with RU-SKI 43 + Lapatinib (first compound 0.3162 µM); 1.12 with RU-SKI 43 + Lapatinib (first compound 1 µM); 1.18 with RU-SKI 43 + Lapatinib (first compound 3.162 µM); 1.24 in the experiment with RU-SKI 43 + Lapatinib (first compound 10 µM); 0.894 with RU-SKI 43 + AZD7762 (first compound 0.1 µM). Further, the relative viability with RU-SKI 43 + AZD7762 (first compound 0.3162 µM) was 0.867; with RU-SKI 43 + AZD7762 (first compound 1 µM) it was 1.2; with RU-SKI 43 + AZD7762 (first compound 3.162 µM), 0.727; with RU-SKI 43 + AZD7762 (first compound 10 µM) it was 0.957; in the experiment with MK-8033 + Olaparib (first compound 0.02 µM) it was 1.07; with MK-8033 + Olaparib (first compound 0.06325 µM), 0.746. Besides, the figures for the relative viability in the experiment with MK-8033 + Olaparib (first compound 0.2 µM), with MK-8033 + Olaparib (first compound 0.6325 µM) and with MK-8033 + Olaparib (first compound 2 µM) were 0.838, 0.939 and 0.898, respectively.
BEN: the relative viability with RU-SKI 43 + Lapatinib (first compound 0.1 µM) was found to be 0.691; with RU-SKI 43 + Lapatinib (first compound 0.3162 µM), 0.607; with RU-SKI 43 + Lapatinib (first compound 1 µM) it was 0.961; with RU-SKI 43 + Lapatinib (first compound 3.162 µM) it was 0.589; in the experiment with RU-SKI 43 + Lapatinib (first compound 10 µM), 0.684; in the experiment with RU-SKI 43 + AZD7762 (first compound 0.1 µM) it was 0.801. Also, the relative viability in the experiment with RU-SKI 43 + AZD7762 (first compound 0.3162 µM) was found to be 0.652; in the experiment with RU-SKI 43 + AZD7762 (first compound 1 µM) it was 0.786; in the experiment with RU-SKI 43 + AZD7762 (first compound 3.162 µM), 0.642; with RU-SKI 43 + AZD7762 (first compound 10 µM), 0.743; with MK-8033 + Trametinib (first compound 0.02 µM), 1.07; with MK-8033 + Trametinib (first compound 0.06325 µM), 0.943. Also, the relative viability in the experiment with MK-8033 + Trametinib (first compound 0.2 µM) is 0.964; with MK-8033 + Trametinib (first compound 0.6325 µM) it was 1.03; with MK-8033 + Trametinib (first compound 2 µM), 0.991; in the experiment with MK-8033 + Olaparib (first compound 0.02 µM) it was 1.13; in the experiment with MK-8033 + Olaparib (first compound 0.06325 µM) it was 1.01; with MK-8033 + Olaparib (first compound 0.2 µM) it was 0.986. Also, the relative viability was 0.985 with MK-8033 + Olaparib (first compound 0.6325 µM) and 1.01 in the experiment with MK-8033 + Olaparib (first compound 2 µM).
Consider CAL-12T, for which the relative viability was found to be 0.661 with RU-SKI 43 + Lapatinib (first compound 0.1 µM); 0.759 in the experiment with RU-SKI 43 + Lapatinib (first compound 0.3162 µM); 0.551 in the experiment with RU-SKI 43 + Lapatinib (first compound 1 µM); 0.562 with RU-SKI 43 + Lapatinib (first compound 3.162 µM); 0.619 in the experiment with RU-SKI 43 + Lapatinib (first compound 10 µM); 0.644 with RU-SKI 43 + AZD7762 (first compound 0.1 µM). The relative viability in the experiment with RU-SKI 43 + AZD7762 (first compound 0.3162 µM) came out at 0.735; in the experiment with RU-SKI 43 + AZD7762 (first compound 1 µM), 0.698; with RU-SKI 43 + AZD7762 (first compound 3.162 µM), 0.714; in the experiment with RU-SKI 43 + AZD7762 (first compound 10 µM), 0.648; with MK-8033 + Trametinib (first compound 0.02 µM), 0.347; with MK-8033 + Trametinib (first compound 0.06325 µM), 0.297. The relative viability with MK-8033 + Trametinib (first compound 0.2 µM) is 0.31; with MK-8033 + Trametinib (first compound 0.6325 µM) it was 0.413; with MK-8033 + Trametinib (first compound 2 µM), 0.329; with MK-8033 + Olaparib (first compound 0.02 µM) it was 0.61; with MK-8033 + Olaparib (first compound 0.06325 µM) it was 0.692; with MK-8033 + Olaparib (first compound 0.2 µM) it was 0.71. Besides, the figures for the relative viability with MK-8033 + Olaparib (first compound 0.6325 µM) and with MK-8033 + Olaparib (first compound 2 µM) were 0.718 and 0.756, respectively.
Take COR-L23: the relative viability with RU-SKI 43 + Lapatinib (first compound 0.1 µM) is 0.982; with RU-SKI 43 + Lapatinib (first compound 0.3162 µM) it was 0.845; in the experiment with RU-SKI 43 + Lapatinib (first compound 1 µM), 1.3; with RU-SKI 43 + Lapatinib (first compound 3.162 µM), 1.04; with RU-SKI 43 + Lapatinib (first compound 10 µM), 0.996; with MK-8033 + Trametinib (first compound 0.02 µM), 0.607. The relative viability came to 0.576 with MK-8033 + Trametinib (first compound 0.06325 µM); 0.602 with MK-8033 + Trametinib (first compound 0.2 µM); 0.572 with MK-8033 + Trametinib (first compound 0.6325 µM); 0.523 with MK-8033 + Trametinib (first compound 2 µM); 0.348 in the experiment with MK-8033 + Olaparib (first compound 0.02 µM); 0.328 in the experiment with MK-8033 + Olaparib (first compound 0.06325 µM). For the same cell line, the relative viability with MK-8033 + Olaparib (first compound 0.2 µM) is 0.378; with MK-8033 + Olaparib (first compound 0.6325 µM), 0.367; with MK-8033 + Olaparib (first compound 2 µM) it was 0.311.
COR-L 105: the relative viability turned out to be 0.411 in the experiment with RU-SKI 43 + Lapatinib (first compound 0.1 µM); 0.344 in the experiment with RU-SKI 43 + Lapatinib (first compound 0.3162 µM); 0.379 in the experiment with RU-SKI 43 + Lapatinib (first compound 1 µM); 0.376 with RU-SKI 43 + Lapatinib (first compound 3.162 µM); 0.351 in the experiment with RU-SKI 43 + Lapatinib (first compound 10 µM); 0.514 in the experiment with MK-8033 + Trametinib (first compound 0.02 µM). The relative viability with MK-8033 + Trametinib (first compound 0.06325 µM) amounted to 0.392; with MK-8033 + Trametinib (first compound 0.2 µM), 0.427; with MK-8033 + Trametinib (first compound 0.6325 µM), 0.434; with MK-8033 + Trametinib (first compound 2 µM), 0.356; with MK-8033 + Olaparib (first compound 0.02 µM) it was 0.846; with MK-8033 + Olaparib (first compound 0.06325 µM), 0.673. In addition, the figures for the relative viability with MK-8033 + Olaparib (first compound 0.2 µM), with MK-8033 + Olaparib (first compound 0.6325 µM) and with MK-8033 + Olaparib (first compound 2 µM) were 0.7, 0.637 and 0.701, respectively.

(Values after the supplement of paper PMC10307832.)
